Experimental data: patent US9402818B2, “Use of amides of mono- and dicarboxylic acids in the treatment of renal diseases” (priority 2010, dated 2016)
Where “and” joins values, the source holds several entries; their conditions need not be identical. Equal entries are not always repeated.

How the values were obtained:
[1] = test system: TGF-1β; experiment: TGF-1β in renal cortex by ELISA, streptozotocin mice; type: in vivo, male mice C57BL6/J; settings: pg/mg of total proteins, diabetic mice
Method: (§1) The evaluation of TGF-1β on the renal tissue was administered through the following method: small pieces of the renal cortex, carefully separated and weighed, were homogenised in Tris-HCl 10 mM buffer at 7.4 pH containing 2M of NaCl, 1 mM PMSF (phenylmethylsulfonyl fluoride, as a protease inhibitor), 1mM EDTA and 0.01% of Tween 80. The samples were centrifuged at 19,000 rpm for 30 minutes and the supernatant was collected, measured and preserved at −80° C. The evaluation of the TGF-1β was made using the ELISA commercial kit (Quantikine Kit™, Res & Diagn Systems, Minneapolis, USA) and the value expressed in pg/mg of total proteins. The concentration of total proteins was measured using the Bio-Rad commercial test (Hercules, Calif., USA).

[2] = test system: renal damage after administration of streptozotocin to mice; experiment: Renal damage after administration of streptozotocin to mice (diabetic nephropathy model); type: in vivo, male mice C57BL6/J
Source text: The model of streptozootocin in mice represents a classic and known model of hyperglycemia capable of inducing a progressive renal damage into the animal leading to the renal disease with clear alterations of the characteristic parameters.
The model applied is as follows: male mice C57BL6/J were kept under standard conditions of care. Diabetes was induced into 8-weeks old mice and with an average weight of about 22 g by means of an intraperitoneal injection of streptozotocin in citrate buffer (55 mg/Kg of weight/day) for 5 consecutive days. The control animals were treated in the same conditions using the citrate buffer alone.
Treatments were administered orally, by means of a tube, using both micronized Palmitoylethanolamide- PEAm (10.0 mg/Kg) suspended in a carrier and ultra-micronized palmitoylethanolamide PEAum (10.0 mg/Kg) suspended in a carrier; the results were compared with control animals treated with the carrier alone. A 0.5% carboxymethyl cellulose was used as a carrier.
Diethanolamide of fumaric acid was administered in sterile aqueous saline solution by intraperitoneal injection (10.0 mg/Kg); the results were compared with the animals treated with sterile saline solution alone.
Administration of the carrier and of the two different suspensions containing palmitoylethanolamide or of the injection solution containing diethanolamide of fumaric acid, were performed once per day starting from the day of the last administration of Streptozotocin. Prior to sacrifice, the blood was collected from the saphenous vein using a micro syringe to determining, through conventional methods, the levels of glycemia, glycated haemoglobin and creatinine of the serum.

[3] = test system: renal damage after administration of Cisplatin to mice; experiment: Renal damage after administration of Cisplatin to mice (nephrotoxicity model); type: in vivo, male mice C57BL6/J; settings: for Body weight: Cisplatin mice (20 mg/Kg i.p.); for Concentration of creatinine in the serum / Kidney weight/body weight / Amount of albumin excreted with urine (18 hrs prior to sacrifice): Cisplatin mice
Source text: Cisplatin, a known and widely used chemotherapy agent, notoriously produces a serious renal damage in 50% of the patients subjected to treatment. Experimentally an animal model is used in mice, in which Cisplatin induces serious nephrotoxicity with ensuing renal disease. The model applied is as follows: male mice C57BL6/J were kept under standard conditions of care. Nephrotoxicity was induced into 8-weeks old mice and with an average weight of about 23 g, by means of an intraperitoneal injection of Cisplatin dihydrochloride in saline solution (20 mg/Kg in one administration). The control animals were treated in the same conditions using the saline solution alone. The animals were sacrificed 72 hrs after treatment with Cisplatin.
6 treatments were administered orally, one each 12 hrs by means of a tube, using both micronized palmitoylethanolamide-PEAm (10.0 mg/Kg) suspended in a carrier and ultra-micronized palmitoylethanolamide-PEAum (10.0 mg/Kg) suspended in a carrier; the first treatment was carried out 12 hours prior to the administration of the Cisplatin. The results were compared with control animals treated with the carrier alone. A 0.5% carboxymethyl cellulose solution was used as the carrier.
Diethanolamide of fumaric acid was administered in sterile aqueous saline solution by intraperitoneal injection (10.0 mg/Kg) with posology analogous to that of PEA; the results were compared with animals treated with sterile saline solution alone.
Prior to sacrifice, the blood was collected from the saphenous vein using a micro syringe to measure, through conventional methods, the levels of creatinine of the serum.

[4] = test system: TGF-1β; experiment: TGF-1β in renal cortex by ELISA, Cisplatin mice; type: in vivo, male mice C57BL6/J; settings: pg/mg of total proteins
Method: as §1, with “The level of TGF-1β” for “The evaluation of TGF-1β”, “tissue was measured through the” for “tissue was administered through the”, “buffer at a 7.4 pH” for “buffer at 7.4 pH”, “protease inhibitor), 1 mM EDTA and” for “protease inhibitor), 1mM EDTA and”, “C. The amount of the” for “C. The evaluation of the”, “TGF-1β was measured using the” for “TGF-1β was made using the”

[5] = test system: renal function of nephropathic patients; experiment: Effect of ultra-micronized palmitoylethanolamide in nephropathic patients; type: in vivo, human; settings: 600 mg tablets, 2 per day, 60 days; for GFR Glomerulal Filtration Rate (Creatinine Clearance) T 60: Cockcroft-Gault; for Glycemia under fasting T 60: single patients Paz-04, -05, -06, diabetic nephropathy, compensated with insulin, T 0 values 210, 240, 280 mg/dl
Method: Palmitoylethanolamide was administered to patients in form of tablets each containing 600 mg of active ingredient in ultra-micronized form; 2 tablets per day (one every 12 hours, after meals) were administered to patients for 60 consecutive days).
Determination of the GRF (Glomerular Filtration Rate) by the creatinine endogenous marker was carried out according to the […] criteria (K/DOQI clinical practice guidelines for chronic kidney disease, 2002), using the Cockcroft-Gault equation (Cockcroft D. W. et al, 1976).

[6] = Solubility in water; type: physicochemical
[7] = 10.0 mg/Kg orally once per day, carrier alone 24.2 ± 5.8, non-diabetic 7.5 ± 0.8, 10 mg/kg
[8] = 10.0 mg/Kg orally once per day in 0.5% carboxymethyl cellulose, carrier alone 25.12 ± 1.10, non-diabetic 27.82 ± 1.18, 10 mg/kg
[9] = 10.0 mg/Kg orally once per day, carrier alone 1.11 ± 0.02, non-diabetic 0.21 ± 0.01, 10 mg/kg
[10] = 10.0 mg/Kg orally once per day, carrier alone 8.65 ± 0.85, non-diabetic 6.65 ± 0.04, 10 mg/kg
[11] = 10.0 mg/Kg orally once per day, carrier alone 12.80 ± 0.44, non-diabetic 4.89 ± 0.05, 10 mg/kg
[12] = 10.0 mg/Kg orally once per day, carrier alone 340.5, non-diabetic 33.7, 10 mg/kg
[13] = 10.0 mg/Kg orally once per day, carrier alone 408.45 ± 33.12, non-diabetic 122.2 ± 5.62, 10 mg/kg
[14] = 10.0 mg/Kg orally every 12 hrs x6, sacrifice 72 hrs, carrier alone 23.10 ± 1.22, control 26.12 ± 1.11
[15] = 10.0 mg/Kg orally every 12 hrs x6, carrier alone 1.26 ± 0.05, control 0.22 ± 0.01, 10 mg/kg
[16] = 10.0 mg/Kg orally every 12 hrs x6, carrier alone 7.22 ± 0.80, control 6.44 ± 0.03, 10 mg/kg
[17] = 10.0 mg/Kg orally every 12 hrs x6, carrier alone 363.75, control 37.4, 10 mg/kg
[18] = 10.0 mg/Kg orally every 12 hrs x6, carrier alone 25.3 ± 6.0, control 8.2 ± 0.7, 10 mg/kg

SMILES | Level of TGF-1β [1, 7] [pg/mg] | Body weight [2, 8] [g] | Concentration of creatinine in the serum [2, 9] [mg/dL] | Kidney weight/body weight [2, 10] | Glycated haemoglobin % [2, 11] [%] | Amount of albumin excreted with urine (18 hrs prior to sacrifice) [2, 12] | Glycemia [2, 13] [mg/dL] | Body weight [3, 14] [g] | Concentration of creatinine in the serum [3, 15] [mg/dL] | Kidney weight/body weight [3, 16] | Amount of albumin excreted with urine (18 hrs prior to sacrifice) [3, 17] | TGF-1β level in renal cortex (pg/mg total protein) [4, 18] [pg/mg] | other results
CCCCCCCCCCCCCCCC(=O)NCCO [PEAm, Palmitoylethanolamide] | 15.0 ± 3.0 | 26.52 ± 1.08 | 0.81 ± 0.01 | 7.85 ± 0.44 | 11.32 ± 0.38 | 289.4 | 386.12 ± 36.76 | 23.58 ± 1.13 | 0.92 ± 0.03 | 7.85 ± 0.34 | 270.90 | 15.8 ± 3.5 | 
CCCCCCCCCCCCCCCC(=O)NCCO [PEAum, Palmitoylethanolamide] | 10.3 ± 2.5 | 26.12 ± 1.21 | 0.44 ± 0.01 | 7.15 ± 0.38 | 11.01 ± 0.18 | 151.5 | 380.34 ± 34.16 | 24.55 ± 1.09 | 0.48 ± 0.02 | 6.89 ± 0.42 | 175.9 | 9.4 ± 3.2 | GFR Glomerulal Filtration Rate (Creatinine Clearance) T 60 ([5]; single patients Paz-01, -02, -03, chronic inflammatory nephropathy, T 0 values 26.4, 21.4, 20.7): 44.6 and 35.2 and 36.1; GFR Glomerulal Filtration Rate (Creatinine Clearance) T 60 ([5]; single patients Paz-04, -05, -06, diabetic nephropathy (diabetes type 2), T 0 values 18.9, 22.4, 21.8): 41.4 and 35.6 and 39.8; Glycemia under fasting T 60 ([5]; with 10 U ready insulin): 230 mg/dL; Glycemia under fasting T 60 ([5]; with 10 U ready plus 20 U retard insulin): 210 mg/dL; Glycemia under fasting T 60 ([5]; with 12 U retard insulin): 110 mg/dL
O=C(/C=C/C(=O)NCCO)NCCO [diethanolamide of fumaric acid, Diethanolamide of fumaric acid] |  |  |  |  |  |  |  |  |  |  |  |  | Level of TGF-1β ([1]; 10.0 mg/Kg i.p. once per day, saline alone 25.3 ± 4.6, non-diabetic 7.5 ± 0.8): 11.7 ± 3.2 pg/mg; Body weight ([2]; 10.0 mg/Kg i.p. once per day in saline solution, saline alone 24.43 ± 1.15, non-diabetic 27.82 ± 1.18): 26.22 ± 1.02 g; Concentration of creatinine in the serum ([2]; 10.0 mg/Kg i.p. once per day, saline alone 1.51 ± 0.08, non-diabetic 0.21 ± 0.01): 0.51 ± 0.03 mg/dL; Kidney weight/body weight ([2]; 10.0 mg/Kg i.p. once per day, saline alone 9.00 ± 0.56, non-diabetic 6.65 ± 0.04): 7.02 ± 0.46; Glycated haemoglobin % ([2]; 10.0 mg/Kg i.p. once per day, saline alone 13.41 ± 0.63, non-diabetic 4.89 ± 0.05): 12.12 ± 0.26%; Amount of albumin excreted with urine (18 hrs prior to sacrifice) ([2]; 10.0 mg/Kg i.p. once per day, saline alone 315.05, non-diabetic 33.7): 135.7; Glycemia ([2]; 10.0 mg/Kg i.p. once per day, saline alone 406.32 ± 33.44, non-diabetic 122.2 ± 5.62): 386.19 ± 33.98 mg/dL; Body weight ([3]; 10.0 mg/Kg i.p. in saline solution, posology as PEA, saline alone 24.22 ± 1.45, control 26.12 ± 1.11): 24.15 ± 1.12 g; Concentration of creatinine in the serum ([3]; 10.0 mg/Kg i.p., saline alone 1.36 ± 0.02, control 0.22 ± 0.01): 0.83 ± 0.06 mg/dL; Kidney weight/body weight ([3]; 10.0 mg/Kg i.p., saline alone 8.15 ± 0.46, control 6.44 ± 0.03): 6.58 ± 0.26; Amount of albumin excreted with urine (18 hrs prior to sacrifice) ([3]; 10.0 mg/Kg i.p., saline alone 351.57, control 37.4): 181.4; Solubility in water [6]: high solubility; TGF-1β level in renal cortex (pg/mg total protein) ([4]; 10.0 mg/Kg i.p., saline alone 22.1 ± 4.3, control 8.2 ± 0.7): 9.1 ± 2.8 pg/mg
